Results as given in US8178668B2, “2-aminopyridine kinase inhibitors” (OSI Pharmaceuticals, LLC, priority 2008, dated 2012).
Structures can show the parent of a compound that is named as a salt.

Experiments:
[1] = target: MET (human) (Homo sapiens, UniProt P08581); assay: MET kinase AlphaScreen assay (Km of ATP); type: biochemical; conditions: ATP at Km; at least duplicate experiments
Procedure, shortened: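 AlphaScreen detection with PT66 beads (1 h) follows a 60 min room-temperature MET reaction. Substrate is 200 ng/μL biotinylated poly(Glu,Tyr), with ATP set at an enzyme-optimized concentration. Buffer is HEPES pH 7.4 with MgCl2, MnCl2 and 0.334 mM vanadate, compounds at 1% DMSO.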

[2] = target: RON (human) (Homo sapiens, UniProt Q04912); assay: RON kinase AlphaScreen assay (Km of ATP); type: biochemical; conditions: ATP at Km; at least duplicate experiments
Procedure, shortened: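 AlphaScreen with PT66 donor/acceptor beads, read after 1 h, detected phosphorylation of biotinylated poly(Glu,Tyr) by human RON. Enzyme-started reactions ran 30 min at room temperature with ATP at Km. Buffer was HEPES pH 7.4 with MgCl2, glycerol, vanadate and 1% DMSO.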

Sequence of RON (human) (Q04912 25-1400): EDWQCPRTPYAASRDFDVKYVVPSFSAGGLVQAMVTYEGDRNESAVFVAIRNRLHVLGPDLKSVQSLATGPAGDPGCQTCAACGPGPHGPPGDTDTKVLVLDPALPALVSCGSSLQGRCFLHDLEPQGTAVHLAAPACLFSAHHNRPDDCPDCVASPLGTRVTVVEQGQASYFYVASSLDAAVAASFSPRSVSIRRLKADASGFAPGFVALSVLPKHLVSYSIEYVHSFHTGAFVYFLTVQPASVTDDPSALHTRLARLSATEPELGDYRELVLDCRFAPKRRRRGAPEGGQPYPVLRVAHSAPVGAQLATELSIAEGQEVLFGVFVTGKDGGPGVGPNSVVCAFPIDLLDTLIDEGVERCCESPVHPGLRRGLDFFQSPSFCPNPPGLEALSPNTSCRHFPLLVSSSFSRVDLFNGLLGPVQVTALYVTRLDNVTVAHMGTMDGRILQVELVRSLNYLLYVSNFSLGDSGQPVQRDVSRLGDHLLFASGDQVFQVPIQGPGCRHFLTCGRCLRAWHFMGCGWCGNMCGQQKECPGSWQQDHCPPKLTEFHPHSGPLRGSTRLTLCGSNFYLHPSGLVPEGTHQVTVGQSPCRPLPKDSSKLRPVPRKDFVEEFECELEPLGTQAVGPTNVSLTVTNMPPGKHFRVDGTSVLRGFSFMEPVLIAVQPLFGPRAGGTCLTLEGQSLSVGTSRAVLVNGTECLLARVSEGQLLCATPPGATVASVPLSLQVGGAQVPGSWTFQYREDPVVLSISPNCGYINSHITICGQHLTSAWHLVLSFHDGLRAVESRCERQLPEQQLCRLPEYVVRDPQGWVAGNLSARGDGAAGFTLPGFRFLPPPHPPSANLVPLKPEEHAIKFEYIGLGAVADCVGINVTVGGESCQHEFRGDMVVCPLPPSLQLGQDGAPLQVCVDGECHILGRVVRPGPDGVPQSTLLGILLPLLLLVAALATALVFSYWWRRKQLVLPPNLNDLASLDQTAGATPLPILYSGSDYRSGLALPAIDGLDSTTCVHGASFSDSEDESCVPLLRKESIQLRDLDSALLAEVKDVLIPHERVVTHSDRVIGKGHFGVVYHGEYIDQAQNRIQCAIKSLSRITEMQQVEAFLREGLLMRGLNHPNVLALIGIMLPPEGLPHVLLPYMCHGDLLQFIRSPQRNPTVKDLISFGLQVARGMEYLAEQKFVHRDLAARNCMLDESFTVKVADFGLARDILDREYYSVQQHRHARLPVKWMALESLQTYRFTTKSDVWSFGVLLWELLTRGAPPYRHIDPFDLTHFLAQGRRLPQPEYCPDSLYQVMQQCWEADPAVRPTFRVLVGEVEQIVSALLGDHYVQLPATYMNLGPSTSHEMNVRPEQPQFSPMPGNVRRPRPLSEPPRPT
Sequence of MET (human) (P08581 25-1390): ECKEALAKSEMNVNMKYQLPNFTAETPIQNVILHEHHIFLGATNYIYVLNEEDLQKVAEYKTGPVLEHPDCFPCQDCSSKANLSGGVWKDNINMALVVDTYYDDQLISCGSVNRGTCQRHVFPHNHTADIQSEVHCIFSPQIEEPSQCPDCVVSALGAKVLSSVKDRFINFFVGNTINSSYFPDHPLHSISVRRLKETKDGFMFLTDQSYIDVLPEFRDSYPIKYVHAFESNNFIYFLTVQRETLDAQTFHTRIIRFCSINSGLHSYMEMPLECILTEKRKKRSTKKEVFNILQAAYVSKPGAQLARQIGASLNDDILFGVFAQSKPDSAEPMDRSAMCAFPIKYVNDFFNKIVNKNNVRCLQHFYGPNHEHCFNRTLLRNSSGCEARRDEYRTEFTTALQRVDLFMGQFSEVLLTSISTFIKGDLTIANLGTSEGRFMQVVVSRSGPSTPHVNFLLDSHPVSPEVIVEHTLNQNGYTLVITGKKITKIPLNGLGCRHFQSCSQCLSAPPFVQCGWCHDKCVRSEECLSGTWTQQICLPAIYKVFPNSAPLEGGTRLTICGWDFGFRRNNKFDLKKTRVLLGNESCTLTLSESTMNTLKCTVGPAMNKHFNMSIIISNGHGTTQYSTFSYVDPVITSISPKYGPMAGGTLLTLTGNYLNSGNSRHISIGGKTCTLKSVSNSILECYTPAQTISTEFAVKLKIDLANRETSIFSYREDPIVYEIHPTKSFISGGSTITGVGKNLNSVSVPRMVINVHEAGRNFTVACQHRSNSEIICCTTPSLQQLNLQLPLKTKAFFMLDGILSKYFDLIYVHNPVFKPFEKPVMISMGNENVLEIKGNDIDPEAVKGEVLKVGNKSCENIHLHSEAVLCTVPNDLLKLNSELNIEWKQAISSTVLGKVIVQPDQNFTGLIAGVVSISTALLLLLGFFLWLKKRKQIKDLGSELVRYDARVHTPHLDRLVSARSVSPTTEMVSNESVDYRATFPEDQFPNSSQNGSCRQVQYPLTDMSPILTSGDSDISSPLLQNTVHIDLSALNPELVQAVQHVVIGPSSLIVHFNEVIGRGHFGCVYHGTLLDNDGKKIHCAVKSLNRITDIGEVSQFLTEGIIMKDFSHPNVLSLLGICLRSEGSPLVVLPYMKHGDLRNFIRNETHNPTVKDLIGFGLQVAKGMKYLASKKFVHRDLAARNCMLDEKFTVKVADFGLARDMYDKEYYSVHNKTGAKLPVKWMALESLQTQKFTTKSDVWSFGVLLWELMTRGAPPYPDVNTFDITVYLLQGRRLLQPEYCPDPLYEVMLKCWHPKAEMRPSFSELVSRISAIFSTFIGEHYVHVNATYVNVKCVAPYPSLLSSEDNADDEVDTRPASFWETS

`Nc1ncc(-c2ccc(OCC(=O)O)cc2)cc1-c1nc2ccccc2s1` [Example 237, 4-[6-Amino-5-(1,3-benzothiazol-2-yl)pyridin-3-yl]phenoxyacetic acid] was tested, and the IC50 [1] was 100 to 1000 nM and the IC50 [2] was 1000 to 20000 nM.
`CNC(=O)COc1ccc(-c2cnc(N)c(-c3nc4ccccc4s3)c2)cc1` [Example 238, 2-[4-(6-Amino-5-benzothiazol-2-ylpyridin-3-yl)-phenoxy]-N-methylacetamide] gave an IC50 [1] of 1000 to 20000 nM and an IC50 [2] of 1000 to 20000 nM.
Work on `CN(C)C(=O)COc1ccc(-c2cnc(N)c(-c3nc4ccccc4s3)c2)cc1` [Example 239, 2-[4-(6-Amino-5-benzothiazol-2-ylpyridin-3-yl)-phenoxy]-N,N-dimethylacetamide] yielded an IC50 [1] of 1000 to 20000 nM and an IC50 [2] of 1000 to 20000 nM.
Work on `Nc1ncc(-c2ccc(OCC(=O)NCc3ccccc3)cc2)cc1-c1nc2ccccc2s1` [Example 240, 2-[4-(6-Amino-5-benzothiazol-2-ylpyridin-3-yl)-phenoxy]-N-benzylacetamide] yielded an IC50 [1] of 1000 to 20000 nM and an IC50 [2] of 1000 to 20000 nM.
With `Nc1ncc(-c2ccc(OCC(=O)N3CCCC3)cc2)cc1-c1nc2ccccc2s1` [Example 241, 2-[4-(6-Amino-5-benzothiazol-2-ylpyridin-3-yl)phenoxy]-1-pyrrolidin-1-ylethanone] the IC50 [1] was 1000 to 20000 nM and the IC50 [2] was > 20000 nM.
`Nc1ncc(-c2ccc(OCC(=O)NCCCN3CCCC3=O)cc2)cc1-c1nc2ccccc2s1` [Example 242, 2-[4-(6-Amino-5-benzothiazol-2-ylpyridin-3-yl)-phenoxy]-N-[3-(2-oxopyrrolidin-1-yl)-propyl]acetamide] showed an IC50 [1] of 1000 to 20000 nM and an IC50 [2] of 1000 to 20000 nM.
With `Nc1ncc(-c2ccc(OCC(=O)NC3CCCCC3O)cc2)cc1-c1nc2ccccc2s1` (stereo not shown) [Example 243, 2-[4-(6-Amino-5-benzothiazol-2-ylpyridin-3-yl)phenoxy]-N-(2-hydroxycyclohexyl)acetamide] the IC50 [1] was 1000 to 20000 nM and the IC50 [2] was > 20000 nM.
`Nc1ncc(-c2ccc(OCC(=O)N3CCOCC3)cc2)cc1-c1nc2ccccc2s1` [Example 244, 2-[4-(6-Amino-5-benzothiazol-2-ylpyridin-3-yl)phenoxy]-1-morpholin-4-ylethanone] was tested, and the IC50 [1] was 1000 to 20000 nM and the IC50 [2] was > 20000 nM.
For `Nc1ncc(-c2ccc(OCC(=O)NCC3CCCCC3)cc2)cc1-c1nc2ccccc2s1` [Example 245, 2-[4-(6-Amino-5-benzothiazol-2-ylpyridin-3-yl)phenoxy]-N-cyclohexylmethylacetamide], the IC50 [1] was 1000 to 20000 nM and the IC50 [2] was > 20000 nM.
`Nc1ncc(-c2ccc(OCC(=O)N3CCN(CCO)CC3)cc2)cc1-c1nc2ccccc2s1` [Example 246, 2-[4-(6-Amino-5-benzothiazol-2-yl-pyridin-3-yl)phenoxy]-1-[4-(2-hydroxyethyl)piperazin-1-yl]ethanone] gave an IC50 [1] of 100 to 1000 nM and an IC50 [2] of 1000 to 20000 nM.
In the case of `Nc1ncc(-c2cnn(C3CCNCC3)c2)cc1-c1nc2cccc(-c3cn[nH]c3)c2s1` [Example 247, 5-(1-Piperidin-4-yl-1H-pyrazol-4-yl)-3-[7-(1H-pyrazol-4-yl)benzothiazol-2-yl]pyridin-2-ylamine dihydrochloride], the IC50 [1] is reported as ≤ 100 nM and the IC50 [2] is reported as 100 to 1000 nM.
Molecule `Cn1cc(-c2cccc3nc(-c4cc(-c5cnn(C6CCNCC6)c5)cnc4N)sc23)cn1` [Example 248, 3-[7-(1-Methyl-1H-pyrazol-4-yl)benzothiazol-2-yl]-5-(1-piperidin-4-yl-1H-pyrazol-4-yl)pyridin-2-ylamine dihydrochloride] has an IC50 [1] of 100 to 1000 nM and an IC50 [2] of 100 to 1000 nM.
For `Nc1ncc(-c2cnn(C3CCNCC3)c2)cc1-c1nc2cccc(-c3ccc[nH]3)c2s1` [Example 249, 5-(1-Piperidin-4-yl-1H-pyrazol-4-yl)-3-[7-(1H-pyrrol-2-yl)benzothiazol-2-yl]pyridin-2-ylamine dihydrochloride], the IC50 [1] was ≤ 100 nM and the IC50 [2] was 100 to 1000 nM.
`Nc1ncc(-c2cnn(C3CCNCC3)c2)cc1-c1nc2cccc(-c3cccnc3)c2s1` [Example 250, 5-(1-Piperidin-4-yl-1H-pyrazol-4-yl)-3-(7-pyridin-3-ylbenzothiazol-2-yl)pyridin-2-ylamine dihydrochloride] was tested, and the IC50 [1] was ≤ 100 nM and the IC50 [2] was 100 to 1000 nM.
